# What was measured:
# [1] = system: P. aeruginosa (ATCC27853) biofilm; experiment: Bacterial biofilm formation (FITC staining, crystal violet staining); type: cell-based, Pseudomonas aeruginosa; conditions: with 10 μg/mL LP4C
# Procedure: The bacterial biofilm growth and measurement was performed according to our previously reported method. Briefly, P. aeruginosa (ATCC27853) was cultured in the tube with nutrient broth containing 2% (w/v) glucose, shaken at 220 rpm for 12 h at 37 °C. The suspension was diluted to 1 × 10^6 CFU/mL and added to 96-well plates, the bacteria was cultured for 24 h at 37 °C for biofilm growth and the planktonic bacterial of each well was removed by PBS rinsing three times. To observe the biofilm formation, the fluorescein isothiocyanate (FITC) was added into the plates and incubated for 2 h at 37 °C; the labeled biofilm was then washed by PBS and visualized under the fluorescence microscopy (Olympus CKX53, Tokyo, Japan). The measurement of biofilm was performed according to the following procedure: the mature biofilm was fixed with 150 μL methanol and left to air dry, then stained with 150 μL of 1% (w/v) crystal violet solution for 15 min at room temperature. The plate was rinsed with PBS three times and 150 μL of glacial acetic acid was added to each well; the optical density was measured at 630 nm optical density using a microplate reader (Bio-Tek ELX800, Berten, USA).
# [2] = system: P. aeruginosa (ATCC27853); experiment: Anti-bacterial activity, inhibition zone diameter on agar; type: cell-based, Pseudomonas aeruginosa; conditions: for growth inhibition / bactericidal activity (inhibition zone): reference antibiotic 10 μg/mL
# Procedure: P. aeruginosa (ATCC27853) was cultured in 3 mL LB culture medium, shaken at 220 rpm for 12 h at 37 °C and diluted to 1 × 10^6 CFU/mL. The culture disk was coated with 1% agar, and 100 μL bacterial suspension was added to the agar in the disk evenly. […] LP4C or reference antibiotics were then added in each hole. The disk was cultured for 12–16 h at 37 °C; the result was then observed and the inhibition zone diameter was measured.
# [3] = system: P. aeruginosa PAO1 strain; parameters: method as in PMID 21852522; conditions: cited from earlier work
# [4] = supplementation 1, 10 and 100 μM
Compound,"reversal of biofilm formation impaired by LP4C [1, 4]",growth inhibition / bactericidal activity (inhibition zone) [2],other results
"O=c1ccn([C@@H]2O[C@H](CO[P@@](=O)(O)O[P@@](=O)(O)OP(=O)(O)O)[C@@H](O)[C@H]2O)c(=O)[nH]1 (stereo in doubt) [UTP, uridine triphosphate, reference compound]",could reverse the biofilm formation ability impaired by 10 μg/mL LP4C,,
"O=c1ccn([C@@H]2O[C@H](COP(=O)(O)O)[C@@H](O)[C@H]2O)c(=O)[nH]1 [UMP, uridine monophosphate, reference compound]",could reverse the biofilm formation ability impaired by 10 μg/mL LP4C,,
CC(C)(O/N=C(\C(=O)N[C@@H]1C(=O)N2C(C(=O)[O-])=C(C[n+]3ccccc3)CS[C@H]12)c1csc(N)n1)C(=O)O [ceftazidime],,no bactericidal activity,
C[C@@H](O)[C@H]1C(=O)N2C(C(=O)O)=C(SCCN=CN)C[C@H]12 [imipenem],,could inhibit the growth of P. aeruginosa obviously,"zone of inhibition at 10 µg/mL ([2]; Pseudomonas aeruginosa, ATCC27853, 10 μg/mL, value printed in Figure 1A): 29.4 mm"
CC(C)=CC[C@@H](O)C1=CC(=O)c2c(O)ccc(O)c2C1=O [shikonin],,,concentration that inhibits biofilm formation [3]: 200 µM
"O=c1cc[nH]c(=O)[nH]1 [uracil, reference compound]",,,reversal of biofilm formation impaired by LP4C ([1]; supplementation 10 and 100 μM): could reverse the biofilm formation ability impaired by 10 μg/mL LP4C

# Source: article PMC10096344 (Molecules, 2023)
